We go through 103 compounds from PubChem BioAssay AID1996.

Molecules are shown by their SMILES. ≈ marks a conversion by molar mass, not a printed value.

The conditions of the data set: buffer; pH 7.4; 200.0 µM.
As a reminder, the kinetic solubility is solubility judged after dilution from a stock solution rather than from solid. As to `CCCOC(=O)Nc1sc2c(c1C(N)=O)CCCC2`, the kinetic solubility was determined as 1.3 µg/mL (≈ 4.6 µM).
In the case of `COCCCNC(=O)c1cc2c(=O)n3cccc(C)c3nc2s1`, the solubility (kinetic) came out at 6.3 µg/mL (≈ 19 µM).
The compound `O=C(NC(=S)Nc1ccccc1O)c1cccnc1` showed a solubility (kinetic) greater than 41 µg/mL.
The value for `COC(=O)c1ccc(N2CCOCC2)c(NC(=O)c2ccco2)c1` was 2.8 µg/mL (≈ 8.48 µM); that for `OC(COc1ccc2c(c1)OCO2)CN1CCCCC1` (stereo not drawn) was 32.5 µg/mL (≈ 116 µM); that for `Cc1cccc(Oc2nc(-c3ccccn3)nc3ccccc23)c1` was 27.6 µg/mL (≈ 88.1 µM).
`CCN(C(=O)COC(=O)c1ccc(Cl)c(S(=O)(=O)N2CCCCC2)c1)C1CCS(=O)(=O)C1` (stereo not drawn) displayed a solubility (kinetic) of 56.6 µg/mL (≈ 112 µM).
The value for `O=C(NCC(c1ccco1)N1CCCCC1)c1cnc(Cl)c(Cl)c1` (stereo not drawn) was greater than 55.2 µg/mL; that for `O=c1cc[nH]c2ccc([N+](=O)[O-])cc12` was greater than 28.5 µg/mL; that for `COc1ccc(S(=O)(=O)NC2CC2)cc1Br` was greater than 45.9 µg/mL.
The value for `Cc1ccccc1-c1nc(S(=O)(=O)c2ccccc2)c(NCCCN2CCOCC2)o1` was 44.9 µg/mL (≈ 102 µM).
As to `O=C(C[n+]1ccc2ccccc2c1)c1ccccc1.[Br-]`, the kinetic solubility is greater than 49.2 µg/mL.
`Cc1ccc(C(=O)N2CCN(c3nc4ccccc4n3C)CC2)cc1` yielded a kinetic solubility greater than 50.2 µg/mL.
Consider `Cc1ccccc1C(=O)NC1CCN(C(=O)NC2CCCCC2)CC1`, for which the solubility (kinetic) was 6.5 µg/mL (≈ 18.9 µM).
`CN1CCCN(C(=O)CNC(=O)c2ccc(Cl)cc2Cl)CC1` yielded a kinetic solubility of 50.8 µg/mL (≈ 148 µM).
The compound `COc1ccccc1C(=O)Nc1ccc2c(c1)n(C)c(=O)n2C` yielded a kinetic solubility of 43.6 µg/mL (≈ 140 µM).
The value for `CC(C)(C)c1ccc(Oc2ccc(N)cn2)cc1` was greater than 36.3 µg/mL; that for `Cc1ccccc1NC1=NC(=S)N(CC(N)=O)C12CCOC(C)(C)C2` (stereo not drawn) was greater than 54.1 µg/mL.
Take `O=C(Nc1cccc(C(=O)Nc2ccccc2C(=O)O)c1)c1cccc(Cl)c1`: the kinetic solubility was greater than 59.2 µg/mL.
The compound `O=C(CC12CC3CC(CC(C3)C1)C2)Nc1ccc(C(=O)O)cc1` showed a solubility (kinetic) greater than 47 µg/mL.
The value for `O=C(COC(=O)c1cc(=O)[nH]c2ccccc12)NCc1cccs1` was greater than 51.4 µg/mL; that for `COc1ccc2c(c1)c(C(C)=O)c(C)n2C` was greater than 32.6 µg/mL.
Turning to `CC1(C)C(=O)Nc2ccccc2N1C(=O)COC(=O)Cc1ccc(Cl)c(Cl)c1`, the kinetic solubility was 10.1 µg/mL (≈ 24 µM).
In the case of `CCc1nnc(NC(=O)CCC(=O)NC2CC2)s1`, the kinetic solubility is greater than 40.2 µg/mL.
For `COc1ccc2c(COC(=O)CNS(=O)(=O)c3ccccc3)cc(=O)oc2c1` the value was 46 µg/mL (≈ 114 µM); for `Cc1ccc(NC(=O)Nc2ccc3c(c2)OCO3)cc1F`, less than 0.3 µg/mL.
Turning to `O=C(Cc1ncon1)Nc1ccc(F)c(F)c1F`, the solubility (kinetic) turned out to be 38.1 µg/mL (≈ 148 µM).
For `O=C(CN1CCc2cc3c(cc2C1)OCCCO3)Nc1ccccc1` the value was 4.4 µg/mL (≈ 13 µM).
In turn, `N#C/C(=C\c1c[nH]c2ccccc12)C(=O)NC1CC1` had a kinetic solubility of 11.4 µg/mL (≈ 45.4 µM).
Consider `COC(=O)[C@@H](N)CCCN=C(N)N[N+](=O)[O-].Cl`, for which the kinetic solubility is greater than 40.5 µg/mL.
The value for `CC(C)=NOc1nc(N(C)C)nc(N2CCOCC2)n1` was 41.9 µg/mL (≈ 149 µM); that for `CCC(=O)Nc1ccc2c(c1)nc1n2CCN(C2CCCCC2)C1` was greater than 49 µg/mL.
`Cn1c(Nc2ccc(Cl)cc2)cc(=O)n(C)c1=O` gave a solubility (kinetic) greater than 39.9 µg/mL.
`Cc1cc(C)cc(NC(=O)Nc2cccc(S(N)(=O)=O)c2)c1` came in with a kinetic solubility of 2.5 µg/mL (≈ 7.83 µM).
The compound `COc1cc(NC(=O)c2ccc(Cl)cc2)c2ncccc2c1` registered a solubility (kinetic) of less than 0.3 µg/mL.
With `Cc1ccc(N2C(=O)CC(=O)NC2=O)cc1Cl`, the kinetic solubility is greater than 37.9 µg/mL.
For `CN(CC(=O)Nc1ccc(OC(F)(F)F)cc1)C(=O)Cc1cccs1`, the kinetic solubility was determined as 9.3 µg/mL (≈ 25 µM).
Regarding `Cc1ccc(-c2c(C(=O)O)c(C(=O)O)c3n2CSC3)cc1`, the solubility (kinetic) was greater than 45.5 µg/mL.
As for `COCCNC(=O)c1ccccc1NC(=O)CSc1ccc(C)cc1`, the kinetic solubility turned out to be 36.6 µg/mL (≈ 102 µM).
`Cc1ccc(C(=O)O/N=C(\N)Cc2cccs2)cc1[N+](=O)[O-]` yielded a kinetic solubility of 39.9 µg/mL (≈ 125 µM).
Compound `O=C(Nc1nc2ccccc2s1)c1ccc([N+](=O)[O-])o1` showed a solubility (kinetic) of less than 0.2 µg/mL.
The value for `CCn1c(SCC(=O)O)nnc1-c1ccccc1OC` was greater than 44 µg/mL; that for `CCN(CC)/C(=N\S(=O)(=O)c1ccc(F)cc1)c1ccccc1` was greater than 50.2 µg/mL; that for `CC(=O)c1sc(NC(=O)c2ccc(C)c(C)c2)nc1C` was less than 0.3 µg/mL.
Take `Fc1ccc(-c2onc3ccc(C4OCCO4)cc23)cc1`: the kinetic solubility is less than 0.6 µg/mL.
Compound `CC1(C)CC(=O)C=C(Nc2cccc(F)c2)C1` had a solubility (kinetic) greater than 35 µg/mL.
`CCS(=O)(=O)N1CCCC(C(=O)c2ccc(OC)cc2C)C1` (stereo not drawn) showed a solubility (kinetic) of 42 µg/mL (≈ 129 µM).
In turn, `CN(CC(=O)Nc1ccc(F)cc1)CC(=O)N1CCc2ccccc21` showed a kinetic solubility greater than 51.2 µg/mL.
The compound `COC(=O)c1sccc1NC(=O)Nc1cccc(C)c1C` displayed a kinetic solubility of 8.1 µg/mL (≈ 26.6 µM).
Compound `O=c1c2ccccc2[nH]c(=S)n1-c1cccnc1` came in with a kinetic solubility of 7.6 µg/mL (≈ 29.8 µM).
Consider `Cc1ccc2cc(CNCCc3ccccc3C)c(=O)[nH]c2c1`, for which the kinetic solubility came to 40.7 µg/mL (≈ 133 µM).
In turn, `CC(=O)c1c(O)c2ccccc2n(Cc2ccccc2)c1=O` yielded a kinetic solubility of 11.8 µg/mL (≈ 40.2 µM).
For the compound `N#Cc1c(-c2ccccc2)[nH]c(=O)[nH]c1=O`, the kinetic solubility was greater than 32 µg/mL.
For `COc1ccc2c(-c3ccccc3)cc(=S)[nH]c2c1` the value was 2.4 µg/mL (≈ 8.98 µM).
`C=CCNc1nc(Cl)nc(NCc2ccco2)n1`: the kinetic solubility worked out at 1.9 µg/mL (≈ 7.15 µM).
For `CCOc1ccc(C(=O)OC2CCCN(C)C2)cc1.Cl` (stereo not drawn) the value was greater than 45 µg/mL; for `Cc1nc2ccc(NC(=O)c3cnc(Cl)c(Cl)c3)cc2s1`, 0.3 µg/mL (≈ 0.887 µM).
Compound `COc1ccc(NC(=O)CCCC(=O)NCCc2ccc(OC)c(OC)c2)cc1` came in with a kinetic solubility of 46 µg/mL (≈ 115 µM).
The compound `COc1cccc(OC)c1OC(=O)C1CC(=O)N(c2ccc3c(c2)OCCO3)C1` (stereo not drawn) showed a kinetic solubility greater than 59.9 µg/mL.
Take `CCN1CCN(Cc2cccnc2)CC1`: the solubility (kinetic) turned out to be 20.2 µg/mL (≈ 98.4 µM).
For the compound `Cc1csc(=O)n1CC(=O)Nc1ccc(Cl)c(Cl)c1`, the kinetic solubility was 9.7 µg/mL (≈ 30.6 µM).
The compound `Cc1nc(SCc2cccnc2)[nH]c(=O)c1C` showed a kinetic solubility greater than 37.1 µg/mL.
The value for `Cc1ccc(NC(=O)c2ccc(CSc3ccccn3)cc2)c(O)c1` was 1 µg/mL (≈ 2.85 µM).
For `C=CCn1c(SCC(C)=O)nc2scc(-c3ccc(C)o3)c2c1=O`, the solubility (kinetic) worked out at 1.6 µg/mL (≈ 4.44 µM).
The compound `CCn1c(C)nc2cc(C(=O)NN=Cc3ccccc3OC(F)F)ccc21` registered a solubility (kinetic) greater than 55.9 µg/mL.
Regarding `CS(=O)(=O)N1CCSC1c1ccc(Br)cc1` (stereo not drawn), the kinetic solubility is 47.8 µg/mL (≈ 148 µM).
The value for `Cc1ccccc1CN1CCN(C(=O)CC(C)C)CC1` was 27 µg/mL (≈ 98.4 µM); that for `COc1ccc(CC(=O)N2CCN(c3cccc(C)c3C)CC2)cc1` was 25.1 µg/mL (≈ 74.2 µM).
`COc1ccccc1CC(=O)Nc1ccc(F)cc1F` had a solubility (kinetic) greater than 41.6 µg/mL.
The compound `CCCc1c(C)[nH]c2ccc(C(=O)O)cc2c1=S` gave a solubility (kinetic) greater than 39.2 µg/mL.
Turning to `Cc1ccc(C(C)C)c(OCCCn2ccnc2C)c1.O=C(O)C(=O)O`, the kinetic solubility stood at 51.2 µg/mL.
In the case of `CCC(C)N1CCN(S(=O)(=O)Cc2ccccc2)CC1` (stereo not drawn), the kinetic solubility was greater than 44.5 µg/mL.
For `Cc1nn(CC(=O)N2CCN(C)CC2)c(=O)c2ccccc12`, the kinetic solubility is greater than 45.1 µg/mL.
`O=C(NC1CCSC1)c1cccc(Cl)c1` (stereo not drawn) came in with a kinetic solubility greater than 36.3 µg/mL.
For `O=C(O)C1(Cc2nc3ccccc3[nH]2)CCCC1` the value was 26.8 µg/mL (≈ 110 µM); for `CSCC[C@H](NC(=O)c1cccc(S(=O)(=O)N2CCCCCC2)c1)c1nc2ccccc2[nH]1`, 2.5 µg/mL (≈ 5.14 µM); for `CSc1ncccc1C(=O)NCc1nnc2ccccn12`, greater than 44.9 µg/mL.
`O=C(CC1SC(N2CCOCC2)=NC1=O)Nc1cccc(C(F)(F)F)c1` (stereo not drawn): the kinetic solubility came to 27.8 µg/mL (≈ 71.8 µM).
As to `Cc1ccc2nc3c(c(Nc4ccccc4)c2c1)CCC3.Cl`, the kinetic solubility turned out to be 35 µg/mL.
For `CC(CCc1ccccc1)NCC#N.Cl` (stereo not drawn) the value was 31.1 µg/mL.
With `C=CCN(C(=O)COC(=O)c1cc[n+]([O-])cc1)c1nc(-c2ccccc2)cs1`, the kinetic solubility stood at 6.1 µg/mL (≈ 15.4 µM).
Take `O=[N+]([O-])c1cccc(S(=O)(=O)NCCc2cn3ccccc3n2)c1`: the kinetic solubility was found to be 48.5 µg/mL (≈ 140 µM).
In the case of `O=C(O)CCN1C(=O)C2C3c4ccccc4C(c4ccccc43)C2C1=O` (stereo not drawn), the solubility (kinetic) was greater than 52.1 µg/mL.
Consider `COc1ccccc1C1CCN(C(=O)c2ccccc2)CC1`, for which the kinetic solubility was determined as 42.4 µg/mL (≈ 144 µM).
The value for `CCCc1ccc(OCC(O)CN2CCCC2)cc1.Cl` (stereo not drawn) was 37.2 µg/mL.
Consider `Cc1ccc(Sc2c([N+](=O)[O-])c(=O)n(C)c3ccccc23)cc1`, for which the kinetic solubility was less than 0.3 µg/mL.
For `Cn1c(N)c(C(=O)COC(=O)c2cccc(S(=O)(=O)N3CCOCC3)c2)c(=O)n(C)c1=O` the value was 20 µg/mL (≈ 42.9 µM); for `COc1ccccc1N1CCN(c2ccc([N+](=O)[O-])cn2)CC1`, 16.2 µg/mL (≈ 51.5 µM); for `CC1=NN(C(=O)CCc2ccccc2)C(O)(c2ccncc2)C1` (stereo not drawn), greater than 46.4 µg/mL.
For `COc1ccc(NC(=O)/C=C/c2cc(OC)c(OC)c(OC)c2)cn1`, the solubility (kinetic) came to 0.5 µg/mL (≈ 1.45 µM).
Consider `CCCC1(c2ccccc2)NC(=O)NC1=O` (stereo not drawn), for which the kinetic solubility was greater than 32.7 µg/mL.
In turn, `Cc1cccc(CC(=O)Nc2cccnc2)c1` returned a kinetic solubility of 31 µg/mL (≈ 137 µM).
The value for `COC(=O)c1nccnc1C(=O)Nc1ccccc1N1CCOCC1` was greater than 51.4 µg/mL; that for `CCOC(=O)CC(NC(=O)c1ccccc1F)c1ccc(C)cc1` (stereo not drawn) was 34.5 µg/mL (≈ 105 µM).
For `COC(=O)c1scc(C)c1N1C(=O)c2ccccc2C1=O`, the solubility (kinetic) was determined as 4.2 µg/mL (≈ 13.9 µM).
The compound `CC(C)c1ccc(OCCCN2CCCC2)cc1` came in with a solubility (kinetic) of 28.8 µg/mL (≈ 116 µM).
Compound `COc1ccc(CCNC2CC(=O)N(C3CCCCC3)C2=O)cc1OC` (stereo not drawn) registered a solubility (kinetic) of 46.4 µg/mL (≈ 129 µM).
`ClCC1=Nc2ccccc2Cc2ccccc21` gave a solubility (kinetic) of 4.8 µg/mL (≈ 19.9 µM).
In turn, `CCn1c(CCc2ccccc2)nc2ccccc21.Cl` displayed a kinetic solubility of 28.4 µg/mL.
As for `CSc1ncc(C(=O)Nc2cc(C)ccc2C)c(C)n1`, the solubility (kinetic) was greater than 43.1 µg/mL.
For `c1coc(-c2ccnc(-c3ccncc3)n2)c1` the value was greater than 33.5 µg/mL; for `C=CCN(C(=O)Nc1ccc2c(c1)nc(C)n2C)c1ccccc1`, greater than 48.1 µg/mL; for `Cc1ccccc1NC(=O)NC1CCS(=O)(=O)C1` (stereo not drawn), greater than 40.2 µg/mL.
